In patent US20260125375A1 (Pfizer Inc., priority 2022, published 2026):

Legend:
[1] = target: T1, CBL-B (residues 36-427) (Homo sapiens, UniProt Q13191); test: Ligand Displacement Assay (LDA), HTRF competitive binding against BODIPY-labeled fluorescent tracer, CBL-B; conditions: geometric mean of the number of tests, read-out: CBL-B Ki (nM) GMean
T1 construct: Purified CBL-B (residues 36-427) and C-CBL (residues 46-435) proteins from baculovirus-infected insect cells; made in house; host or cells: baculovirus-infected insect cells
Summary of the method: (§1)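 First, the insect-cell-expressed protein is biotinylated at its amino-terminal AviTag with BirA and coupled to SA-Tb. Next, the tracer KD is determined for each protein. Finally, compounds are titrated three-fold in duplicate […], at 2% DMSO, and Ki is reported as a geometric mean.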

[2] = target: T2, C-CBL (residues 46-435) (Homo sapiens, UniProt P22681); test: Ligand Displacement Assay (LDA), HTRF competitive binding against BODIPY-labeled fluorescent tracer, C-CBL; conditions: geometric mean of the number of tests, read-out: C-CBL Ki (nM) GMean
T2 construct: Purified CBL-B (residues 36-427) and C-CBL (residues 46-435) proteins from baculovirus-infected insect cells; made in house; host or cells: baculovirus-infected insect cells
T2 sequence (P22681 46-435): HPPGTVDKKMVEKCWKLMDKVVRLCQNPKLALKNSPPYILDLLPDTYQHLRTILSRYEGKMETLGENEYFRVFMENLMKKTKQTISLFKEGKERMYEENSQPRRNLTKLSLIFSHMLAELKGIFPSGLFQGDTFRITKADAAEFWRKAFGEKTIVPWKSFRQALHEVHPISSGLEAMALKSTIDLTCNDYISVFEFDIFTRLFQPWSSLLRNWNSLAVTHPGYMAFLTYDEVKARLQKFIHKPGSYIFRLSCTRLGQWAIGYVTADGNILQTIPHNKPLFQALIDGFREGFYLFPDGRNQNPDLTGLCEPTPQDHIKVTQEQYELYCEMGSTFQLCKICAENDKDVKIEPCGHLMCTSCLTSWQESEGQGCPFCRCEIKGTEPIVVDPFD
Summary of the method: as §1

[3] = target: T3, WT CBL-B (36-427) (Homo sapiens, UniProt Q13191); test: Surface Plasmon Resonance (SPR) assay, binding affinity and kinetics, CBL-B; conditions: SPR at 10° C., biotinylated WT CBL-B (36-427) on streptavidin chip; geometric mean; read-out: CBL-B SPR Kd (nM) GMean
T3 construct: N-terminal biotinylated WT CBL-B (36-427) and C-CBL (46-435) were captured on a streptavidin (SA) coated sensor chip
Description: (§2) Surface Plasmon Resonance (SPR) Assay
(§3) The purpose of the SPR assay is to evaluate the binding affinity and kinetics of the compound of disclosure binding to CBL-B and C-CBL.
(§4) The binding affinity and kinetics of compound binding to CBL-B and C-CBL were measured by Surface Plasmon Resonance (SPR) using either Biacore S200, 8K or 8K+ (Cytiva, Marlborough, MA) instruments. N-terminal biotinylated WT CBL-B (36-427) and C-CBL (46-435) were captured on a streptavidin (SA) coated sensor chip to achieve approximately 5000 to 6000 RUs of surface density. Un-functionalized SA surfaces with no immobilized protein served as reference for binding kinetic analysis. All the samples were prepared in buffer consisting of 10 mM HEPES, 150 mM NaCl, 0.05% Tween-20, 5% glycerol, […], 2% DMSO, pH 7.2. The same buffer was used as the running buffer during the experiments. Compound binding kinetics were measured in either multi-cycle or single-cycle kinetic format.
(§5) Multi-cycle kinetic analysis (MCK): A two-fold, 10-point serial dilution of test compounds was set-up in a 96-well microplate (Greiner; Cat #650101) with a top concentration of either 10 μM or 100 μM. Binding kinetics was measured at 10° C. by injecting serial dilution of compounds onto both reference and CBL immobilized channels at a flow rate of 100 μL/min and association time of 90 seconds. Compound dissociation was monitored for >400 seconds during each cycle. No additional regeneration was used. DMSO calibration curve was obtained before and after compound analysis by injecting 0-4% of DMSO in assay buffer. A suitable compound with known affinity and kinetics was tested once in every experiment as a positive control to assess activity of the captured proteins on the surface.
(§6) Single-cycle kinetic analysis (SCK): A 3-fold, 6-point serial dilution of compounds was set-up in a deep 96-well microplate (Greiner Bio; Cat #780201) with the highest concentration of 1 μM (concentration range: […]). Binding kinetics was measured at 10° C. by injecting serial dilutions of compounds in increasing order onto reference as well as CBL immobilized channels at a flow rate of 100 μL/min and association time of 120 seconds. Compound dissociation was monitored for >5400 seconds. Two buffer blanks were also run in a single-cycle kinetics format before the compound run for double referencing. No additional regeneration was used. DMSO calibration curve was obtained before and after compound analysis by injecting 0-4% of DMSO in the assay buffer. A suitable compound with known affinity and kinetics was tested once in every experiment as a positive control to assess activity of the captured proteins on the surface.

[4] = target: T4, C-CBL (46-435) (Homo sapiens, UniProt P22681); test: Surface Plasmon Resonance (SPR) assay, binding affinity and kinetics, C-CBL; conditions: SPR at 10° C., biotinylated C-CBL (46-435) on streptavidin chip; geometric mean; read-out: C-CBL SPR Kd (nM) GMean
T4 construct: N-terminal biotinylated WT CBL-B (36-427) and C-CBL (46-435) were captured on a streptavidin (SA) coated sensor chip
T4 sequence (P22681 46-435): T2 sequence (P22681 46-435)
Description: as §2, §3, §4, §5, §6

SMILES | Ki [1] [nM] | Ki [2] [nM] | Kd [3] [nM] | Kd [4] [nM]
Cn1cnnc1[C@@H](c1cccc(-c2n[nH]c3c(CN[C@@H]4CC[C@@H](O)C4)nc(C(F)(F)F)cc23)c1)C1CCC1 [Example D35] | 12.9 | 100 | 4.4 | 152
Cn1cnnc1CC1(c2cccc(-c3n[nH]c4c(CN[C@H]5CCOC5)nc(C(F)(F)F)cc34)c2)COC1 [Example C50] | 24.7 | 90 | 14.5 | 145
CN[C@H](C)c1nc(C(F)(F)F)cc2c(-c3cccc(C4(Cc5nncn5C)COC4)c3)n[nH]c12 (single isomer, unassigned) [Example D38] | 34 | 135 | 10 | 110
CCNCc1nc(C(F)(F)F)cc2c(-c3cccc([C@H](c4nncn4C)C4CCC4)c3)n[nH]c12 [Example D81] | 25.7 | 191 | 5.6 | 206
Cn1cnnc1CC1(c2cccc(-c3n[nH]c4c(CNC5CC(F)(F)C5)nc(C(F)(F)F)cc34)c2)COC1 [Example C78, 3,3-difluoro-N-{[3-(3-{3-[(4-methyl-4H-1,2,4-triazol-3-yl)methyl]oxetan-3-yl}phenyl)-5-(trifluoromethyl)-1H-pyrazolo[3,4-c]pyridin-7-yl]methyl}cyclobutan-1-amine] | 56.6 | 253 | 10 | 144
Cn1cnnc1[C@@H](c1cccc(-c2n[nH]c3c(CNC4CCC4)nc(C(F)(F)F)cc23)c1)C1CCC1 [Example C105, N-{[3-{3-[(R)-cyclobutyl(4-methyl-4H-1,2,4-triazol-3-yl)methyl]phenyl}-5-(trifluoromethyl)-1H-pyrazolo[3,4-c]pyridin-7-yl]methyl}cyclobutanamine] | 29.4 | 244 | 4.2 | 132
Cn1cnnc1CC1(c2cccc(-c3n[nH]c4ccc(Cl)cc34)c2)COC1 [Example B7, 5-chloro-3-(3-{3-[(4-methyl-4H-1,2,4-triazol-3-yl)methyl]oxetan-3-yl}phenyl)-1H-indazole] | 25.1 | 150 | 7.2 | 108
C[C@@H]1CN(Cc2nc(C(F)(F)F)cc3c(-c4cccc(C5(Cc6nncn6C)COC5)c4)n[nH]c23)CCO1 [Example C72, 7-{[(2R)-2-methylmorpholin-4-yl]methyl}-3-(3-{3-[(4-methyl-4H-1,2,4-triazol-3-yl)methyl]oxetan-3-yl}phenyl)-5-(trifluoromethyl)-1H-pyrazolo[3,4-c]pyridine] | 18.6 | 83.3 | 2.3 | 63.1
C[C@@H](c1nc(C(F)(F)F)cc2c(-c3cccc(C4(Cc5nncn5C)COC4)c3)n[nH]c12)N1CCNCC1 (single isomer, unassigned) [Example D53] | 11.8 | 36.9 | 3.2 | 36.1
Cn1cnnc1[C@@H](c1cccc(-c2n[nH]c3c(CN[C@H]4C[C@@H](O)C4)nc(C(F)(F)F)cc23)c1)C1CCC1 [Example C120, (1s,3s)-3-({[3-{3-[(R)-cyclobutyl(4-methyl-4H-1,2,4-triazol-3-yl)methyl]phenyl}-5-(trifluoromethyl)-1H-pyrazolo[3,4-c]pyridin-7-yl]methyl}amino)cyclobutan-1-ol] | 13.6 | 105 | 11.1 | 156
C[C@@H](c1nc(C(F)(F)F)cc2c(-c3cccc(C4(Cc5nncn5C)COC4)c3)n[nH]c12)N1CCC1 (single isomer, unassigned) [Example D41] | 18.5 | 65.5 | 6.2 | 50.8
Cn1cnnc1CC1(c2cccc(-c3n[nH]c4cnc(OC(F)F)cc34)c2)COC1 [Example B10, 5-(difluoromethoxy)-3-(3-{3-[(4-methyl-4H-1,2,4-triazol-3-yl)methyl]oxetan-3-yl}phenyl)-1H-pyrazolo[3,4-c]pyridine] | 57.8 | 187 | 22.2 | 141
CN(C)Cc1nc(C(F)(F)F)cc2c(-c3cccc([C@H](c4nncn4C)C4CCC4)c3)n[nH]c12 [Example D82] | 32.5 | 258 | 8.7 | 213
CCC(c1cccc(-c2n[nH]c3cnc(C(F)(F)F)cc23)c1)c1nncn1C (single isomer, unassigned) [Example A2, 3-{3-[(1ξ)-1-(4-methyl-4H-1,2,4-triazol-3-yl)propyl]phenyl}-5-(trifluoromethyl)-1H-pyrazolo[3,4-c]pyridine] | 80.4 | 224 | 35.8 | 251
CC(NC1CC2(COC2)C1)c1nc(C(F)(F)F)cc2c(-c3cccc([C@H](c4nncn4C)C4CCC4)c3)n[nH]c12 (single isomer, unassigned) [Example C98] | 26.9 | 109 | 11.3 | 205
Cn1cnnc1CC1(c2cccc(-c3n[nH]c4c(CN[C@@H]5CCC(F)(F)C5)nc(C(F)(F)F)cc34)c2)COC1 [Example C60, (1R)-3,3-difluoro-N-{[3-(3-{3-[(4-methyl-4H-1,2,4-triazol-3-yl)methyl]oxetan-3-yl}phenyl)-5-(trifluoromethyl)-1H-pyrazolo[3,4-c]pyridin-7-yl]methyl}cyclopentan-1-amine] | 10.7 | 57.5 | 5.1 | 41.7
CN(C)c1nc(C(F)(F)F)cc2c(-c3cccc(C4(Cc5nncn5C)COC4)c3)n[nH]c12 [Example J9, N,N-dimethyl-3-(3-{3-[(4-methyl-4H-1,2,4-triazol-3-yl)methyl]oxetan-3-yl}phenyl)-5-(trifluoromethyl)-1H-pyrazolo[3,4-c]pyridin-7-amine] | 92.2 | 228 | 30.1 | 244
CC(N[C@@H]1CCOC1)c1nc(C(F)(F)F)cc2c(-c3cccc(C4(Cc5nncn5C)COC4)c3)n[nH]c12 (single isomer, unassigned) [Example C86] | 9 | 49.4 | 5.1 | 60.3
Cn1cnnc1CC1(c2cccc(-c3n[nH]c4cnc(Cl)cc34)c2)COC1 [Example B8, 5-chloro-3-(3-{3-[(4-methyl-4H-1,2,4-triazol-3-yl)methyl]oxetan-3-yl}phenyl)-1H-pyrazolo[3,4-c]pyridine] | 28.6 | 142 | 15.9 | 180
CC(N)c1nc(C(F)(F)F)cc2c(-c3cccc(C4(Cc5nncn5C)COC4)c3)n[nH]c12 (single isomer, unassigned) [Example K16, (1ξ)-1-[3-(3-{3-[(4-methyl-4H-1,2,4-triazol-3-yl)methyl]oxetan-3-yl}phenyl)-5-(trifluoromethyl)-1H-pyrazolo[3,4-c]pyridin-7-yl]ethan-1-amine] | 32 | 140 | 15.7 | 216
